Laboratory results taken from US6803369B1, “Compounds and methods for the treatment of neoplastic disease” (priority 2000, dated 2004).

Biological target: complex between DNA gyrase and pBR322 DNA (Staphylococcus aureus, UniProt P0A0K8+P20831)
Experiment: Binding assay demonstrating ternary complex formation (SEC with HPLC/MS detection)
Set-up: species or system S. aureus
Excerpt: The above-defined compounds are an exemplary class of compounds, which display the attributes of the claimed compounds of this invention, that is, they act primarily by inhibition of topoisomerase. While the compounds and methods of the invention are directed to eukaryotic, particularly mammalian topoisomerase inhibition, bacterial DNA gyrase was used to illustrate the mechanism of action. The evidence, provided by bacterial enzyme, for such biological activity includes the fact that selective resistance to the compounds is associated with point mutations in Staphylococcus aureus GyrA and B subunits. Further, Escherichia coli and S. aureus DNA gyrase supercoiling activity is inhibited in vitro by the compounds. A ternary complex has been isolated which is composed of pBR322 relaxed circular DNA, S. aureus DNA gyrase, and test compounds. […] The compounds of the invention also show antagonism of ciprofloxacin-induced cleavage of linear DNA.
An excess of test compound is added, typically as a mixture of three ligands, and after incubation the excess compound is separated from the resulting DNA:gyrase complex using size exclusion chromatography (SEC), with reverse phase HPLC and on-line MS detection to identify and quantify the bound compound.

Sequence of complex between DNA gyrase and pBR322 DNA (P20831 whole entry): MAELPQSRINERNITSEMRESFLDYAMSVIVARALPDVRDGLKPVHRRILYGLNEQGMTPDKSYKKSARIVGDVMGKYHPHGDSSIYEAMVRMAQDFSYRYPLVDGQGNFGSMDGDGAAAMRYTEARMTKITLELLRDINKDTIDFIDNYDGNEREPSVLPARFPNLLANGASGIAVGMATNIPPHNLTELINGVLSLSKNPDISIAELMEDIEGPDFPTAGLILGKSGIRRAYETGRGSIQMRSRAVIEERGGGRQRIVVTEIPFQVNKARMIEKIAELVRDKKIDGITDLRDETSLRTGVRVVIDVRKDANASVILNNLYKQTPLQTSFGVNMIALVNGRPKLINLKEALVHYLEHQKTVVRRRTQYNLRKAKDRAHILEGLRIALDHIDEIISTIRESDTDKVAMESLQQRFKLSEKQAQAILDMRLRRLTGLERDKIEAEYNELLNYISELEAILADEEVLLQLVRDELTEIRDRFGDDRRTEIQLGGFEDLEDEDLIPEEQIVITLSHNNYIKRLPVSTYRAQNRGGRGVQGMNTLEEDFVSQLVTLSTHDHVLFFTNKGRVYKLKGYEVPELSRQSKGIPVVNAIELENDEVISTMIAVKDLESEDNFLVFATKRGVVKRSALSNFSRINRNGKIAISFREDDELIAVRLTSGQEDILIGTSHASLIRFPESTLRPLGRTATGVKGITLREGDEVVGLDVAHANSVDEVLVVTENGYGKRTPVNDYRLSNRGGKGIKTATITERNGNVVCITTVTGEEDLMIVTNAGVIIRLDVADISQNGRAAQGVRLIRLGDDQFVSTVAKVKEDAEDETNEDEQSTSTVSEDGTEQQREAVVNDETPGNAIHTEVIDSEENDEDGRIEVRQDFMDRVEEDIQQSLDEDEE
Sequence of complex between DNA gyrase and pBR322 DNA (P0A0K8 whole entry): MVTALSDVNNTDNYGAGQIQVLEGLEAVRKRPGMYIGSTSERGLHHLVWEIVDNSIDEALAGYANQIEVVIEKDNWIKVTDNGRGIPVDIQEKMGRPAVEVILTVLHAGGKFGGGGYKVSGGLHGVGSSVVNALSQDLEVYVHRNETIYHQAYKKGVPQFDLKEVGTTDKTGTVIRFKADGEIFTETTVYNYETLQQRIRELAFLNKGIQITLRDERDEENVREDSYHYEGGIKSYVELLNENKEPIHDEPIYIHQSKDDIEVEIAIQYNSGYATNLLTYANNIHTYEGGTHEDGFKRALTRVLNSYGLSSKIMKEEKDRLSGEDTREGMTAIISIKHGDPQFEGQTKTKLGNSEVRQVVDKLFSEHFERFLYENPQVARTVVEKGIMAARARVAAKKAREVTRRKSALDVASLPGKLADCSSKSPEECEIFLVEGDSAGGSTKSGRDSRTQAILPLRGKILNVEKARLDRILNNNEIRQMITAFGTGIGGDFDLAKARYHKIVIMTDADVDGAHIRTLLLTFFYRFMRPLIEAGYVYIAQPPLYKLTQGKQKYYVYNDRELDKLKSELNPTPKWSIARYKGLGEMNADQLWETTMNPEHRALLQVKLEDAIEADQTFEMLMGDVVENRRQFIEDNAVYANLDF

With `CCCCCCCN1CCN(C[C@H](O)c2ccnc3ccc(OC)cc23)C[C@H]1CO.O=C(O)C(=O)O.O=C(O)C(=O)O` [SB366676-AY, [2S]-1-Heptyl-4-[2-(R)-hydroxy-2-(6methoxyquinolin-4-yl)ethyl]-2-hydroxymethylpiperazine dioxalate] the “detection in the high molecular weight fraction on the SEC column” value (DNA gyrase + pBR322 DNA, clear resolution from excess ligand) was “detected in the high molecular weight fraction”, the “binding detected in mixture of ligands” value (in the presence of SB369890 and BRL26172CC) was “Only binding of SB366676-AY” and the “stoichiometry: molecules bound to each gyrase:DNA complex” value (stoichiometry studies) was “two”.
